According to paper PMC12419465, “Photoresponsive molecular tweezers modulate Taspase 1 activity” (RSC Chemical Biology, 2025):
Where two headings read alike, the source gives them in different places.

Assays:
[1] = target: T1, full-length, proteolytically inactive Taspase 1 (Homo sapiens, UniProt Q9H6P5, D233A/T234A); assay: Surface plasmon resonance on immobilized full-length, inactive Taspase 1; format: binding; conditions: for ka / kd: Table S3, n = 2
T1 sequence (Q9H6P5 1-420 D233A/T234A): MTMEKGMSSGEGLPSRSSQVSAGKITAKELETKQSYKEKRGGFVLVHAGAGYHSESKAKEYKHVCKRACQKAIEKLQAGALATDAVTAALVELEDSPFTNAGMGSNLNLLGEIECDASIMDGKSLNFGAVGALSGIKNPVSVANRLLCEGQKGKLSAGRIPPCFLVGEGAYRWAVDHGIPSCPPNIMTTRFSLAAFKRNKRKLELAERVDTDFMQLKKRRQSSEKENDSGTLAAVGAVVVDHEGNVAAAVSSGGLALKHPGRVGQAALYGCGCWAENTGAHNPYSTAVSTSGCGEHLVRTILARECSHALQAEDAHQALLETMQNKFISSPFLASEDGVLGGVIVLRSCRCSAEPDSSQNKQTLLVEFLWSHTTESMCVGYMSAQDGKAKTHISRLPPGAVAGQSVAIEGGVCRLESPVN
Experimental: SPR measurements were conducted as described.[9,10]
First, we utilized an established surface plasmon resonance (SPR) assay to evaluate the overall binding of our ligands to Taspase 1 (Fig. 3).[10,54] […] High affinities were observed, with KD values in the single micromolar range (Fig. 3, and Table S2).
Fig. 3 Photoswitchable tweezer constructs bind Taspase 1 with SPR binding affinities in the low micromolar range. […] Duplicate measurements were performed, with the respective curves shown in the same colour at different brightness levels (right). […] KD values (Table S2) were determined through kinetic evaluation by fitting the individual curves to a 1 : 1 binding model. Detailed SPR data are provided in the SI (Table S3). Composed with https://BioRender.com. […] No printed text gives the condition. In each entry the first value is the upper row and the second is the lower row.
Supplementary Table S3. Kinetic parameters of photoswitchable tweezer constructs as determined by SPR (see Fig. 3). Values were derived from fitted sensorgrams with a 1:1 two state binding model from n = 2 measurements for the indicated constructs. Analysis was performed using the Trace Drawer software 1.9.2 (TraceDrawer Software, Sweden). […]

[2] = target: T2, Taspase 1/Importin α interaction (Homo sapiens, UniProt Q9H6P5, D233A/T234A); assay: Recombinant pull-down assay, GST-Importin α bait and Taspase 1-His prey; format: biochemical; conditions: percentage of the PPI of Importin α with full-length Taspase 1, ligand conc. 25 µM, n = 3
T2 construct: with full-length Taspase 1 in the recombinant pull-down assay
T2 sequence (Q9H6P5 1-420 D233A/T234A): T1 sequence (Q9H6P5 1-420 D233A/T234A)
Experimental: Pull-down assay: recombinant pull-down assays were performed as described.[9,10] For details on the assay workflow, see SI (Fig. S6).
Pull-down assays were conducted with 100 μM of TWAAP3 in either its Z or E isomer form or left untreated (un.), omitting the ligand. […] To achieve the respective Z or E isomer, TWAAP3 was irradiated with UV light (365 nm) or green light (520 nm) prior to incubation. All samples contained 3% DMSO during ligand incubation. Negative controls included samples lacking either GST-Importin α (-Iα) or Taspase 1 (-T). *, p < 0.05, t-test. Composed with https://BioRender.com.
Figure S6. Controls for pull-down assays with TWAAP constructs. A. Schematic assay
representation: GST -Importin α was immobilized on a glutathione -coated Sepharose matrix in a spin
column. After GST binding, Taspase 1-His pre-incubated with tweezer constructs was added. […]

[3] = E enriched isomer, Table S2, read-out: KD (E)
[4] = E isomer, ligand conc. 0.06 - 25 µM, Table S4, read-out: KD TW (SPR, full-length protein)
[5] = Z enriched isomer, Table S2, read-out: KD (Z)
[6] = Z isomer, ligand conc. 0.06 - 25 µM, Table S4, read-out: KD TW (SPR, full-length protein)

Row | SMILES | Kd [1, 3] | SPR signal ([1]; E isomer) | association rate constant (ka) ([1]; E isomer) | dissociation rate constant (kd) ([1]; E isomer) | Kd [1, 4] | Kd [1, 5] | SPR signal ([1]; Z isomer) | association rate constant (ka) ([1]; Z isomer) | dissociation rate constant (kd) ([1]; Z isomer) | Kd [1, 6] | ka ([1]; isomer E) | kd ([1]; isomer E) | ka ([1]; isomer Z) | kd ([1]; isomer Z) | PPI TW (pull-down, full-length protein) ([2]; E isomer) | PPI TW (pull-down, full-length protein) ([2]; Z isomer)
1 | Cc1nn(-c2ccc(-n3cc(CCOP(=O)(O)Oc4c5c(c(OP(=O)(O)O)c6c4C4CC6c6cc7c(cc64)C4CC7c6ccccc64)C4CC5c5cc6c(cc54)C4CC6c5ccccc54)nn3)cc2)c(C)c1N=Nc1ccc(-n2cc(CCOP(=O)(O)Oc3c4c(c(OP(=O)(O)O)c5c3C3CC5c5cc6c(cc53)C3CC6c5ccccc53)C3CC4c4cc5c(cc43)C3CC5c4ccccc43)nn2)cc1 [TWAAP0] | 0.71 µM | approximately 300 μRIU | 1.04 × 10^3 M^1 s^1 | 0.000743 s⁻¹ | 0.7 µM | 2.87 µM | approximately 300 μRIU | 1.12 × 10^3 M^1 s^1 | 0.00322 s⁻¹ | 2.9 µM | 1120 ± 34 M⁻¹ s⁻¹ | 0.00322 ± 7.17e-07 s⁻¹ | 1040 ± 20.5 M⁻¹ s⁻¹ |  |  | 
2 | Cc1nn(Cc2cn(CCOP(=O)(O)Oc3c4c(c(OP(=O)(O)O)c5c3C3CC5c5cc6c(cc53)C3CC6c5ccccc53)C3CC4c4cc5c(cc43)C3CC5c4ccccc43)nn2)c(C)c1N=Nc1ccc(-c2cn(CCOP(=O)(O)Oc3c4c(c(OP(=O)(O)O)c5c3C3CC5c5cc6c(cc53)C3CC6c5ccccc53)C3CC4c4cc5c(cc43)C3CC5c4ccccc43)nn2)cc1 [TWAAP2] | 5.67 µM |  |  |  | 5.7 µM | 4.28 µM |  |  |  | 4.3 µM | 1170 ± 96.4 M⁻¹ s⁻¹ | 0.00501 ± 9.88e-07 s⁻¹ | 750 ± 76.2 M⁻¹ s⁻¹ | 0.00426 ± 1.03e-06 s⁻¹ |  | 
3 | Cc1nn(-c2ccc(-c3cn(CCOP(=O)(O)Oc4c5c(c(OP(=O)(O)O)c6c4C4CC6c6cc7c(cc64)C4CC7c6ccccc64)C4CC5c5cc6c(cc54)C4CC6c5ccccc54)nn3)cc2)c(C)c1N=Nc1ccc(-c2ccc(-c3cn(CCOP(=O)(O)Oc4c5c(c(OP(=O)(O)O)c6c4C4CC6c6cc7c(cc64)C4CC7c6ccccc64)C4CC5c5cc6c(cc54)C4CC6c5ccccc54)nn3)cc2)cc1 [TWAAP3] | 4.05 µM | approximately 120 μRIU | 3.81 × 10^3 M^1 s^1 | 1.53 × 10^−2 s^1 | 4.1 µM | 2.67 µM | about 500 μRIU | 9.57 × 10^2 M^1 s^1 | 2.56 × 10^−3 s^1 | 2.7 µM | 957 ± 56.1 M⁻¹ s⁻¹ | 0.00256 ± 4.04e-06 s⁻¹ | 3810 ± 2090 M⁻¹ s⁻¹ | 0.0153 ± 2.5e-05 s⁻¹ | 90% | 60%
4 | Cc1nn(-c2ccc(C#Cc3ccc(-c4cn(CCOP(=O)(O)Oc5c6c(c(OP(=O)(O)O)c7c5C5CC7c7cc8c(cc75)C5CC8c7ccccc75)C5CC6c6cc7c(cc65)C5CC7c6ccccc65)nn4)cc3)cc2)c(C)c1N=Nc1ccc(C#Cc2ccc(-c3cn(CCOP(=O)(O)Oc4c5c(c(OP(=O)(O)O)c6c4C4CC6c6cc7c(cc64)C4CC7c6ccccc64)C4CC5c5cc6c(cc54)C4CC6c5ccccc54)nn3)cc2)cc1 [TWAAP4] | 2.9 µM |  |  |  |  | 1.96 µM |  |  |  | 2 µM | 4690 ± 1260 M⁻¹ s⁻¹ | 0.00918 ± 4.22e-06 s⁻¹ | 3340 ± 688 M⁻¹ s⁻¹ | 0.00967 ± 4.04e-06 s⁻¹ |  | 
5 | O=P(O)(O)Oc1c2c(c(OP(=O)(O)OCCn3cc(-c4ccc(N=Nc5ccc(-c6cn(CCOP(=O)(O)Oc7c8c(c(OP(=O)(O)O)c9c7C7CC9c9cc%10c(cc97)C7CC%10c9ccccc97)C7CC8c8cc9c(cc87)C7CC9c8ccccc87)nn6)cc5)cc4)nn3)c3c1C1CC3c3cc4c(cc31)C1CC4c3ccccc31)C1CC2c2cc3c(cc21)C1CC3c2ccccc21 [TWAB1] | 9.32 µM |  |  |  | 9.3 µM | 9.2 µM |  |  |  |  | 596 ± 116 M⁻¹ s⁻¹ | 0.000548 ± 2.4e-05 s⁻¹ |  |  |  | 
